# From patent US20190276798A1, “METHOD FOR PREPARING COLLAGEN HAVING REGENERATION AND REPAIR EFFECTS FROM WHARTON'S JELLY MESENCHYMAL STEM CELLS” (P.E. ASIA BIOMEDICINE CO., LTD., priority 2018, published 2019)
# What was measured:
# type III collagen = test: Collagen 3 expression in WJMSC cells, Western blotting; assay type: cell-based, human; conditions: for expression of pro-collagen 3: FIG. 3(B), ImageJ fold change vs control, normalized to β-actin
# Description: (§1) Wharton's Jelly mesenchymal stein cells (WJMSC cells: BCRC H-WJ001) were cultured in α-MEM medium supplemented with 10% to 20% of fetal bovine serum (FBS) and 2 to 8 ng/mL of human basic fibroblast growth factor (bFGF). In the present invention, the WJMSC cells are incubated in α-MEM medium supplemented with 10% FBS and 4 ng/mL bFGF. In addition, the WJMSC cells are incubated in an incubator with a temperature of 37° C. and 5% carbon dioxide (CO2).
# (§2) The WJMSC cells were seeded onto culture dishes at a cell density of 5×10^4 cells/cm^2, and incubated in a first medium of 10% FBS α-MEM medium supplemented with and 4 ng/mL bFGF for 24 hours. After 24 hours, the first medium was removed and the WJMSC cells were washed by 1× phosphate-buffered saline (PBS) for two to three times. The WJMSC cells were then incubated in a second medium for 48 hours. The second medium contains α-MEM medium supplemented with bFGF (ProSpece cat: cyt-218-b), proline (Calbiochem, cat: #5370), arginine (Merck, cat: #1011542) or L-ascorbic acid (Sigma, cat: SI-A8960) as experimental design. After 48 hours, the cells were collected for protein extraction, and expression of type I collagen (abbreviated to “collagen 1”) and type III collagen (abbreviated to “collagen 3”) was examined.
# (§3) The cell medium was removed and the cells were washed by 1× PBS for two times. The cells were treated with 10 mM EDTA (ethylenediaminetetraacetic acid)-PBS solution or 0.5 M acetic acid and scraped down at 4° C. to obtain a first mixture. The first mixture was placed into a centrifuge tube for lysing cells by a sonication process. The sonication process comprises sonication at […] for 15 seconds by an ultrasonicator for three times, and the time interval between each sonication is 30 seconds. After the sonication process, the first mixture was centrifuged at 4° C. at a speed of 2000 rpm for 30 minutes to obtain a protein crud extract.
# (§4) In addition, a cell lysis buffer can be used for cell protein extraction. The extraction method comprises the steps of removing cell medium, washing the cells by 1× PBS twice, adding RIPA cell lysis buffer containing 10 mM EDTA into the cells and shaking for at least 30 minutes, scraping down the cells to obtain a cells-lysis buffer mixture, placing the cells-lysis buffer mixture into a centrifuge tube, and centrifuging at 4° C. at a speed of 12000 rpm for at least 15 minutes to obtain a protein crud extract.
# (§5) The protein crud extract was then mixed with 25% saturated […] solution, or mixed with 3M sodium chloride (NaCl) solution for reaction at 4° C. for 24 hours to perform a salting-out process. After 24 hours, the mixed solution was centrifuged at 4° C. at a speed of 3500 g for 30 minutes, and a supernatant was removed to preserve a sediment. The sediment was washed by 1× PBS, and centrifuged at 4° C. at a speed of 3500 g for 30 minutes. The sediment was preserved and dissolved by 0.5 M acetic acid solution to obtain a protein extract. The protein extract was then analyzed by Western blotting assay to detect expression of collagen. All the experiments were repeated at least twice and the results with representative are disclosed.
# (§6) FIG. 3(A) is a diagram showing effects of L-ascorbic acid and proline on collagen expression in WJMSC cells. In FIG. 3(A), “AA(5)” represents that WJMSC cells were treated with 5 μM L-ascorbic acid, “Pro(2)” represents that WJMSC cells were treated with 2 mM proline, and “bFGF(4)” represents that the WJMSC cells were treated with 4 ng/mL bFGF. In addition, pro-collagen 1, collagen 1, pro-collage 3 and collagen 3 are marked by arrow signs in FIG. 3(A). […] Referring to FIG. 3(B), the results in FIG. 3(A) are quantified by ImageJ software, the quantification method comprises steps of acquiring a density value of a band of a target in Western blotting and normalizing the density value with a density value of β-actin of the same sample to obtain a normalization value. […]
# type I collagen = test: Collagen 1 expression in WJMSC cells, Western blotting; assay type: cell-based, human; conditions: for expression of pro-collagen 1: FIG. 3(B), ImageJ fold change vs control, normalized to β-actin
# Description: as §1, §2, §3, §4, §5, §6
# [1] = system: Human foreskin fibroblasts (HS68); test: Wound healing of HS68 cells on collagen-coated culture dish; assay type: cell-based; conditions: for Wound size (%): dish coated with 50 μg/mL collagen; for Wound healing percentage (%): relative to wound size at 2 hours
# Description: Human foreskin fibroblasts (HS68) were seed and attached onto a culture dish at a density of 2×10^4 cells/cm^2 and were incubated in 10% FBS DMEM medium for 24 hours. In control group, an ordinary culture dish without any treatment was used. In collagen group, a collagen-coated culture dish used is prepared by dropping appropriate amount of collagen extracted from WJMSC cells at a concentration of 50 μg/mL on a surface of the culture dish, spreading the collagen evenly, and placing the culture dish into a 37° C. incubator overnight to obtain the collagen-coated culture dish. After the HS68 cells were cultured for 24 hours, the culture medium of HS68 cells was removed and the cells were washed by 1× PBS. A wound was generated on the attached cells, and the wound was observed and photographed at 0, 2, 4, 6, and 20 hours after wound generation by a microscopy. The photographs were analyzed by ImageJ software. The region has no cell on it is considered as a wound size, and a wound healing percentage is calculated by the following formula:
# Wound healing percentage (%)=[(wound size at observed time point−wound size at 2 hours after wound generation)/wound size at 2 hours after wound generation]×100%.
# [2] = WJMSC cells treated with 5 μM L-ascorbic acid
# [3] = WJMSC cells treated with 0.2 mM to 20 mM of arginine (FIG. 1)
# [4] = WJMSC cells treated with arginine alone, 0.2 mM (FIG. 2)
# [5] = WJMSC cells treated with 0.2 mM proline
# [6] = WJMSC cells treated with 2 mM proline, vs control
# [7] = WJMSC cells treated with 5 mM to 20 mM proline, same enhancement as with 2 mM
# [8] = WJMSC cells treated with 4 ng/mL bFGF
compound,measurement,setting,value
O=C1O[C@H]([C@@H](O)CO)C(O)=C1O [L-ascorbic acid],expression of pro-collagen 3,type III collagen; 5 μM L-ascorbic acid,enhanced
same,expression of collagen 3,type III collagen; [2],enhanced
same,expression of pro-collagen 1,type I collagen; 5 μM L-ascorbic acid,enhanced
same,expression of collagen 1,type I collagen; [2],enhanced
N=C(N)NCCC[C@H](N)C(=O)O [arginine],expression of collagen 3,type III collagen; [3],not is enhanced
same,expression of collagen 3,type III collagen; [4],not enhanced
same,expression of collagen 1,type I collagen; [3],not is enhanced
same,expression of collagen 1,type I collagen; [4],not enhanced
O=C(O)[C@@H]1CCCN1 [proline],expression of pro-collagen 3,type III collagen; 2 mM proline,enhanced
same,expression of collagen 3,type III collagen; [5],enhanced
same,expression of collagen 3,type III collagen; [6],enhanced
same,expression of collagen 3,type III collagen; [7],not achieved
same,expression of pro-collagen 1,type I collagen; 2 mM proline,enhanced
same,expression of collagen 1,type I collagen; [5],enhanced
same,expression of collagen 1,type I collagen; [6],enhanced
same,expression of collagen 1,type I collagen; [7],not achieved
Collagen,Wound size (%),[1]; 2 hr after wound generation,15.2%
same,Wound healing percentage (%),[1]; 4 hr after wound generation,13.0%
same,Wound size (%),[1]; 4 hr after wound generation,13.3%
same,Wound healing percentage (%),[1]; 6 hr after wound generation,38.0%
same,Wound healing percentage (%),"[1]; 6 hr after wound generation, listed as collagen",38%
same,Wound size (%),[1]; 6 hr after wound generation,9.4%
same,Wound healing percentage (%),[1]; 20 hr after wound generation,100.0%
same,Wound healing percentage (%),"[1]; 20 hr after wound generation, listed as collagen",100%
same,Wound size (%),[1]; 20 hr after wound generation,0.0%
same,cell density,"[1]; 20 hr, 10× objective lens, vs control group (FIG. 6)",higher
same,cells observed on the wound region,"[1]; after 4 hours and 6 hours of wound generation, microscopy, vs control group (FIG. 6)",more significant
same,wound region covered by cells,"[1]; after 20 hours of wound generation, microscopy (FIG. 6)",all covered by cells
same,"wound healing percentage, collagen group compared with control group",[1]; over the observed time points,better
bFGF: human basic fibroblast growth factor (bFGF),expression of pro-collagen 3,type III collagen; 4 ng/mL bFGF,enhanced
same,expression of collagen 3,type III collagen; [8],enhanced
same,expression of pro-collagen 1,type I collagen; 4 ng/mL bFGF,enhanced
same,expression of collagen 1,type I collagen; [8],enhanced
